Assay results published in PubChem BioAssay AID1963830 (Molecular Pharmacology Branch, DTP, NCI, 2024).

Tested on: 922993-354-T-J3-PDC complex spheroid viability
Assay: Anticancer human tumor 922993-354-T-J3-PDC patient-derived endometrial carcinoma cell line growth inhibition [POLQ]
Settings: for IC50: curve of first compound; for viability, T/C: stronger effect = lower value
Method in brief: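 Three-cell-type spheroids modelling solid tumor plus stroma served as the readout system; POL inhibitors were tested individually and in combination, concentration ranges set by clinical Cmax where known.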

[1] = second compound 0.0316 µM, first compound 0.0316 µM
[2] = second compound 0.0316 µM, first compound 0.1 µM
[3] = second compound 0.1 µM, first compound 0.0316 µM
[4] = second compound 0.1 µM, first compound 0.1 µM
[5] = second compound 0.316 µM, first compound 0.0316 µM
[6] = second compound 0.316 µM, first compound 0.1 µM
[7] = second compound 1 µM, first compound 0.0316 µM
[8] = second compound 1 µM, first compound 0.1 µM
[9] = second compound 3.16 µM, first compound 0.0316 µM
[10] = second compound 3.16 µM, first compound 0.1 µM
[11] = second compound 10 µM, first compound 0.0316 µM
[12] = second compound 10 µM, first compound 0.1 µM
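Note: spheroids exposed to the agents for one week.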
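Throughout, for viability, T/C: 100% = DMSO vehicle control wells.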

Question: What does the source list for `Nc1ccn(C2OC(CO)C(O)C2(F)F)c(=O)n1` (centres undefined) + Cc1cccc(N(C)C(=O)C2C(O)CCN2c2nc(C)cc(C(F)(F)F)c2C#N)c1?
Answer: IC50 (second compound 0.0316 µM): < 31.6 nM; IC50 (second compound 0.1 µM): < 31.6 nM; IC50 (second compound 0.316 µM): < 31.6 nM; IC50 (second compound 1 µM): < 31.6 nM; IC50 (second compound 3.16 µM): < 31.6 nM; IC50 (second compound 10 µM): < 31.6 nM; viability, T/C [1]: 11.1%; viability, T/C [2]: 10.3%; viability, T/C (second compound 0.0316 µM, first compound 0.316 µM): 9.57%; viability, T/C (second compound 0.0316 µM, first compound 1 µM): 11.8%; viability, T/C (second compound 0.0316 µM, first compound 3.16 µM): 9.18%; viability, T/C (second compound 0.0316 µM, first compound 10 µM): 9.18%; viability, T/C [3]: 14.8%; viability, T/C [4]: 10.9%; viability, T/C (second compound 0.1 µM, first compound 0.316 µM): 11.3%; viability, T/C (second compound 0.1 µM, first compound 1 µM): 10.7%; viability, T/C (second compound 0.1 µM, first compound 3.16 µM): 10.7%; viability, T/C (second compound 0.1 µM, first compound 10 µM): 11%; viability, T/C [5]: 11.9%; viability, T/C [6]: 11.5%; viability, T/C (second compound 0.316 µM, first compound 0.316 µM): 11.9%; viability, T/C (second compound 0.316 µM, first compound 1 µM): 9.92%; viability, T/C (second compound 0.316 µM, first compound 3.16 µM): 8.14%; viability, T/C (second compound 0.316 µM, first compound 10 µM): 9.97%; viability, T/C [7]: 12.6%; viability, T/C [8]: 9.47%; viability, T/C (second compound 1 µM, first compound 0.316 µM): 8.22%; viability, T/C (second compound 1 µM, first compound 1 µM): 8.9%; viability, T/C (second compound 1 µM, first compound 3.16 µM): 7.29%; viability, T/C (second compound 1 µM, first compound 10 µM): 10.3%; viability, T/C [9]: 11.3%; viability, T/C [10]: 10.2%; viability, T/C (second compound 3.16 µM, first compound 0.316 µM): 10.6%; viability, T/C (second compound 3.16 µM, first compound 1 µM): 7.56%; viability, T/C (second compound 3.16 µM, first compound 3.16 µM): 9.43%; viability, T/C (second compound 3.16 µM, first compound 10 µM): 10.6%; viability, T/C [11]: 7.43%; viability, T/C [12]: 8.87%; viability, T/C (second compound 10 µM, first compound 0.316 µM): 7.1%; viability, T/C (second compound 10 µM, first compound 1 µM): 6.45%; viability, T/C (second compound 10 µM, first compound 3.16 µM): 8.61%; viability, T/C (second compound 10 µM, first compound 10 µM): 8.92%

Question: What does the source list for `Cn1ncnc1[C@H]1c2n[nH]c(=O)c3cc(F)cc(c23)N[C@@H]1c1ccc(F)cc1` + Nc1ccc(C#CCN(C(=O)Cc2ncc(C(F)(F)F)cc2C(F)(F)F)c2ccc(F)cc2)nn1?
Answer: IC50 (second compound 0.0316 µM): > 100 nM; IC50 (second compound 0.1 µM): > 100 nM; IC50 (second compound 0.316 µM): > 100 nM; IC50 (second compound 1 µM): > 100 nM; IC50 (second compound 3.16 µM): > 100 nM; IC50 (second compound 10 µM): > 100 nM; viability, T/C (second compound 0.0316 µM, first compound 0.000316 µM): 97.9%; viability, T/C (second compound 0.0316 µM, first compound 0.001 µM): 102%; viability, T/C (second compound 0.0316 µM, first compound 0.00316 µM): 101%; viability, T/C (second compound 0.0316 µM, first compound 0.01 µM): 98.3%; viability, T/C [1]: 101%; viability, T/C [2]: 89.2%; viability, T/C (second compound 0.1 µM, first compound 0.000316 µM): 107%; viability, T/C (second compound 0.1 µM, first compound 0.001 µM): 102%; viability, T/C (second compound 0.1 µM, first compound 0.00316 µM): 102%; viability, T/C (second compound 0.1 µM, first compound 0.01 µM): 98.1%; viability, T/C [3]: 102%; viability, T/C [4]: 86.5%; viability, T/C (second compound 0.316 µM, first compound 0.000316 µM): 104%; viability, T/C (second compound 0.316 µM, first compound 0.001 µM): 106%; viability, T/C (second compound 0.316 µM, first compound 0.00316 µM): 100%; viability, T/C (second compound 0.316 µM, first compound 0.01 µM): 96.6%; viability, T/C [5]: 96%; viability, T/C [6]: 89.6%; viability, T/C (second compound 1 µM, first compound 0.000316 µM): 105%; viability, T/C (second compound 1 µM, first compound 0.001 µM): 101%; viability, T/C (second compound 1 µM, first compound 0.00316 µM): 98.7%; viability, T/C (second compound 1 µM, first compound 0.01 µM): 98.1%; viability, T/C [7]: 96.8%; viability, T/C [8]: 86.2%; viability, T/C (second compound 3.16 µM, first compound 0.000316 µM): 102%; viability, T/C (second compound 3.16 µM, first compound 0.001 µM): 99%; viability, T/C (second compound 3.16 µM, first compound 0.00316 µM): 93%; viability, T/C (second compound 3.16 µM, first compound 0.01 µM): 95.4%; viability, T/C [9]: 89.2%; viability, T/C [10]: 82.6%; viability, T/C (second compound 10 µM, first compound 0.000316 µM): 101%; viability, T/C (second compound 10 µM, first compound 0.001 µM): 94.9%; viability, T/C (second compound 10 µM, first compound 0.00316 µM): 94.8%; viability, T/C (second compound 10 µM, first compound 0.01 µM): 85.7%; viability, T/C [11]: 71.9%; viability, T/C [12]: 53.4%
